For data set [1], the system named is K562/ADR cells. In words: Annexin V-FITC/PI apoptosis assay. Format: cell-based, human. The conditions noted are these: 5 μg/mL DOX·HCl and/or 10 µg/mL CQ, 48 h.
For data set [2] the following is noted: mouse, in vivo. The method, then: (§1) The BALB/c nude mice were subcutaneously inoculated with K562/ADR cells (2×10^7 cells) on the right flank to construct K562/ADR tumor-bearing mice models. After 10 days, mice were randomly divided into seven groups (n = 5) once the tumors reached about 80 mm^3. And then various formulations were injected intravenously through the tail vein every other day for four times and saline was taken as the control group. […] Later, the mice were sacrificed and the tumors were excised and weighted. In addition, tumors and major organs (heart, liver, spleen, lung, and kidney) were collected for slice analysis by hematoxylin and eosin (H&E) staining. The tumors were also analyzed by immunohistochemical detection of Ki67, immunofluorescence assay of LC3 and terminal deoxynucleotidyl transferased dUTP nick end labeling (TUNEL) assay.

Data set [3] has as its system K562/ADR cells. The experiment in a line: Cytotoxicity by CCK-8 kit, 48 h. Format: cell-based, human. (In general: Tetrazolium dyes change colour on reduction, which living cells bring about.)
Experimental: (§10) Accordingly, the reversal index (RI) of DOX·HCl for MCF-7/ADR cells and K562/ADR cells was calculated using the following formula: RI = IC50 of the test formulation / IC50 of free DOX·HCl.
Data set [4] deals with K562 cells. In words: Cytotoxicity by CCK-8 kit, 48 h. Format: cell-based. The conditions noted are these: Homo sapiens. The method, then:
(§2) The cytotoxicity of free DOX·HCl, free CQ, physical mixture of free DOX·HCl and CQ (DC), physical mixture of PPAP and cholesteryl hemisuccinate (PPAP/C) and drug-loaded nanovesicles on MCF-7 cells, MCF-7/ADR cells, K562 cells or K562/ADR cells was investigated at 48 h via CCK-8 kit. Accordingly, the reversal index (RI) of DOX·HCl for MCF-7/ADR cells and K562/ADR cells was calculated using the following formula: RI = […]. The combination index (CI) between DOX⋅HCl and CQ at different ratios was calculated as follows: CI = D1/(Dm)1 + D2/(Dm)2 + D1*D2/(Dm)1*(Dm)2, where D1 and (Dm)1 represent the IC50 values of DOX⋅HCl applied in combination or alone, respectively, and D2 and (Dm)2 represent the IC50 values of CQ applied in combination or alone, respectively. In addition, apoptosis analysis was implemented using the Annexin V-FITC/PI kit (LianKe, China) based on the kit instructions. The details were provided by Supplementary Material (Supplementary section 1). […]
(§3) Cytotoxicity and annexin V-FITC/PI apoptosis assay
(§4) To investigate the cytotoxicity of free DOX·HCl, free CQ, physical mixture of free DOX·HCl and CQ, PPAP/C and drug-loaded nanovesicles, various cell lines (MCF-7, […]
(§5) cells/well, respectively, and cultured in RPMI 1640 containing 10 % fetal bovine serum […]
(§6) at 37 °C with 5 % CO2. After 24 h, cells were exposed to increasing concentrations of different formulations for 48 h. Then, 10 µL of CCK-8 reagent was added to each well and the plates were incubated for 2 h. And the absorbency was determined by a microplate reader (Thermo, USA) at 450 nm. […]
(§7) Afterwards, rhodamine 123 (2 µg/mL) was incubated with these cells for 30 […]
(§8) minutes at 37°C . […]
(§9) 104 cells was collected for each sample at the appropriate period.

The subject of data set [5] is MCF-7 cells. In words: Cytotoxicity by CCK-8 kit, 48 h. To be noted: Homo sapiens. Format: cell-based. As for the experimental part:
as §2, §3, §4, §5, §6, §7, §8, §9

In data set [6] the test system is MCF-7/ADR cells. In words: Annexin V-FITC/PI apoptosis assay. Format: cell-based, human. The conditions noted are these: 5 μg/mL DOX·HCl and/or 10 µg/mL CQ, 48 h.
Data set [7] has as its system MCF-7/ADR cells. In words: Cytotoxicity by CCK-8 kit, 48 h. Format: cell-based, human.
Experimental: as §10
The subject of data set [8] is K562/ADR tumors. The experiment in a line: In vivo anti-tumor activity. More on the design: species or system BALB/c nude mice. The conditions noted are these: K562/ADR tumor-bearing nude mice, i.v. at 0, 2, 4 and 6 days, Day 16. As for the experimental part:
as §1

For data set [9], the target named is T1, P-gp (Homo sapiens, UniProt P08183).
T1 construct: the extremely high expression of P-gp existed in MCF-7/ADR cells and K562/ADR cells; host or cells: MCF-7/ADR and K562/ADR cells
In words: P-gp functional activity (rhodamine 123 accumulation, flow cytometry). Format: cell-based. To be noted: MCF-7/ADR and K562/ADR cells, increasing CQ concentrations. The method, then: at 37 °C with 5 % CO2. After 24 h, cells were exposed to increasing concentrations of different formulations for 48 h. Then, 10 µL of CCK-8 reagent was added to each well and the plates were incubated for 2 h. And the absorbency was determined by a microplate reader (Thermo, USA) at 450 nm. Data are reported as means of triplicate […]
The apoptosis analysis was further investigated. Briefly, MCF-7/ADR or K562/MDR cells (2 × 10^5 cells/well) were seeded in 12-well plates and incubated overnight in RPMI 1640 containing 10 % fetal bovine serum. Afterwards, the cells were incubated with various formulations for 48 h at the final DOX·HCl and CQ concentration of 5 and 10 µg/mL, respectively. The cells were treated according to the kit instructions and analyzed by flow cytometry.
P-gp functional activity evaluation
Flow cytometry analysis was used to investigate the effect of CQ on the functional activity of P-gp through monitoring the intracellular uptake of rhodamine 123, namely, a kind of P-gp substrate. Specifically, MCF-7/ADR cells and K562/ADR cells (2 × 10^5 cells/well) were seeded in 12-well plates, respectively. […] Then the cell suspension was analyzed by flow cytometry with the 488 nm argon ion laser. Also, the individual fluorescence of 104 cells was collected for each sample at the appropriate period.
On the technique in general: In flow cytometry, cells or beads pass a laser one at a time.

The conditions of data set [10]: ref [20], [21]; cited from earlier work.

Structures are written as SMILES. Where a name gives a salt, the structure may show the parent alone. Read-outs that look alike come from different tables or passages of the source.

T1 sequence (P08183 whole entry): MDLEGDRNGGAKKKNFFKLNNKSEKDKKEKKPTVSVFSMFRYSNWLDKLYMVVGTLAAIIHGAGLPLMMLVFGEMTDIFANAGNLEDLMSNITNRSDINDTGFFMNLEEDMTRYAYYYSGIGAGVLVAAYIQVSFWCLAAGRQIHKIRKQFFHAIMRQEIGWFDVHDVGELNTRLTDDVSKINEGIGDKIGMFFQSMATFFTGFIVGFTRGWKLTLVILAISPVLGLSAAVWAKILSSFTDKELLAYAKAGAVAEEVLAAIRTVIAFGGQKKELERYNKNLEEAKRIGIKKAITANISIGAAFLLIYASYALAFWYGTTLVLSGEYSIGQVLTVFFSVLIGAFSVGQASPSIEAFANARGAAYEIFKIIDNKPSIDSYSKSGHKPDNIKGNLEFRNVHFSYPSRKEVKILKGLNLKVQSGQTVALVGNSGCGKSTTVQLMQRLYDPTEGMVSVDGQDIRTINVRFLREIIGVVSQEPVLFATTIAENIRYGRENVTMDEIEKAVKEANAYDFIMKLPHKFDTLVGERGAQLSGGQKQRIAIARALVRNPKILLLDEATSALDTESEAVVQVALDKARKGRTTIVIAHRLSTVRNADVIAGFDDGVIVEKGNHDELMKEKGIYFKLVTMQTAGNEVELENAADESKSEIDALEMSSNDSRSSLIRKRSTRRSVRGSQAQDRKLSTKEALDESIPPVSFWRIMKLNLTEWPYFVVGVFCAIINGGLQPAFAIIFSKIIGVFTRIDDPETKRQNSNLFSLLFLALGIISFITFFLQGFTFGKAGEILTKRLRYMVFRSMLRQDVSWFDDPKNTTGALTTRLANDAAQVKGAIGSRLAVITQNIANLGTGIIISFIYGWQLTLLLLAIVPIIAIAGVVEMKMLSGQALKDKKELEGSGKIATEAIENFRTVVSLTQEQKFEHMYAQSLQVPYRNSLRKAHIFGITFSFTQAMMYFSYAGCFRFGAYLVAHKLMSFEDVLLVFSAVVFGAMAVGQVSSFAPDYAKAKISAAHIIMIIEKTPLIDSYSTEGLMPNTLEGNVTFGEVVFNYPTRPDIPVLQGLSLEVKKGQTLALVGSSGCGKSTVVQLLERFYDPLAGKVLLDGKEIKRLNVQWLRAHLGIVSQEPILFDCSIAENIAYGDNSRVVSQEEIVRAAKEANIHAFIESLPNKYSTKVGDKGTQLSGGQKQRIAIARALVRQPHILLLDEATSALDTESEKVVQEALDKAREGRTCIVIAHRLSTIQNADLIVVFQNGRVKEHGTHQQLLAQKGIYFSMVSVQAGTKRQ

For orientation: IC50 means the concentration that inhibits the measured activity by half. Take `COc1cccc2c1C(=O)c1c(O)c3c(c(O)c1C2=O)C[C@@](O)(C(=O)CO)C[C@@H]3O[C@H]1C[C@H](N)[C@H](O)[C@H](C)O1` [DOX·HCl, Doxorubicin hydrochloride]: the Apoptosis rate in data set [1] is reported as 42.56%; in [6], 40.83%. For the same molecule, in [2], the “body weight change during treatment” value is listed as “sharp decrease in body weight”. Besides, the “histopathological abnormalities of hearts (H&E)” value in data set [2] was “severe histopathological abnormalities and lesions in the cardiac muscles”. The IC50 in [3] (Homo sapiens, K562/ADR cells, 48 h, read-out: IC50 of DOX·HCl) was 18.9 µg/mL; in data set [4] (K562 cells, within 48 h, read-out: IC50) it was 0.15 ± 0.06 µg/mL; in [5] (MCF7, MCF-7 cells, within 48 h, read-out: IC50) it was 0.08 ± 0.01 µg/mL; in data set [7] (Homo sapiens, NCI/ADR-RES, MCF-7/ADR cells, 48 h, read-out: IC50 of DOX·HCl), 72.1 µg/mL. In addition, the “DOX·HCl-resistance index” value in data set [3] (K562/ADR cells vs sensitive cells) is recorded as 126 fold; in data set [7] (MCF-7/ADR cells vs sensitive cells), 902 fold. In addition, the “tumor inhibition rate (TIR)” value in [8] came to 28.80%.
In the case of `CCN(CC)CCCC(C)Nc1ccnc2cc(Cl)ccc12` (centres unmarked) [CQ, Chloroquine], the Apoptosis rate is 40.17% in data set [1] and 33.64% in [6]. For the same molecule, in data set [9], the “effect on efflux activity of P-gp (rhodamine 123 accumulation)” value is “can inhibit the efflux activity of P-gp”. The IC50 in [4] (K562, 48 h) was 17.4 ± 1.34 µg/mL; in data set [5] (MCF7, 48 h), 23.9 ± 0.42 µg/mL. Further, the “plasma protein binding rate” value in data set [10] is recorded as 60%.

Source of the values: paper PMC9131275, “Drug-induced self-assembled nanovesicles for doxorubicin resistance reversal via autophagy inhibition and delivery synchronism” (Theranostics, 2022).
